The values below come from patent publication US6521659B2, “Compositions containing a substituted indolealkanoic acid and an angiotensin converting enzyme inhibitor” (Institute for Pharmaceutical Discovery, LLC, priority 2000, dated 2003).

Test [1] deals with human aldose reductase (hALR2) (Homo sapiens, UniProt P15121). Description: Inhibition of human aldose reductase (hALR2), methods similar to Butera et al. To be noted: for HALR1/hALR2: ratio of hALR1 IC50 to hALR2 IC50 (selectivity). Type of test: biochemical. As for the experimental part: Representative compounds of Formula Iwere tested for their potency, selectivity and efficacy as inhibitors of human aldose reductase.
Since high potency of test compounds as inhibitors of aldose reductase is desirable, low hALR2 IC50 values are sought. On the other hand, high potency of test compounds as inhibitors of aldehyde reductase is undesirable, and high ALR1 IC50s values are sought. Accordingly, the hALR1/hALR2 ratio is used to determine the selectivity of the test compounds. The importance of this selectivity is Described in Kotani, et al., J. Med. Chem. 40: 684, 1997.

The target in test [2] is T1, human aldehyde reductase (hALR1) (Homo sapiens, UniProt P14550).
T1 sequence (P14550 1-325): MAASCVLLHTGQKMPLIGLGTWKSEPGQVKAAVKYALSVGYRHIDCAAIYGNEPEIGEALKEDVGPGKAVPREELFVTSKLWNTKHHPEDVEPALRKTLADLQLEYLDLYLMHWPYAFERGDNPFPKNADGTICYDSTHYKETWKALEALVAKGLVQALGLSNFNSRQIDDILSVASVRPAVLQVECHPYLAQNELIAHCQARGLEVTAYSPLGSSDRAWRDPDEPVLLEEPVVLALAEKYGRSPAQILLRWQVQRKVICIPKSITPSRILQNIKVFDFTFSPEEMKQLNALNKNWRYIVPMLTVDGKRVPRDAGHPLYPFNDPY
Description: Inhibition of human aldehyde reductase (hALR1), methods of Ishii et al. Type of test: biochemical. On the procedure: In a second assay, a number of the same compounds were tested for their ability to inhibit aldehyde reductase (hALR1), a structurally related enzyme.
Since high potency of test compounds as inhibitors of aldose reductase is desirable, low hALR2 IC50 values are sought. On the other hand, high potency of test compounds as inhibitors of aldehyde reductase is undesirable, and high ALR1 IC50s values are sought. Accordingly, the hALR1/hALR2 ratio is used to determine the selectivity of the test compounds.

Like-named read-outs stand apart in the source and are kept apart here. A value given as a limit tells only on which side of the number the result lay.

As for “3-[6-Fluorbenzothiazole-2-yl]methyl-indole-N-acetic Acid [Example 24]”, the HALR1/hALR2 in test [1] worked out at 4.

For the molecule `Cc1c(Cc2nc3c(F)c(F)cc(F)c3s2)c2ccccc2n1CC(=O)O` [Example 1, 2-methyl-3-(4,5,7-trifluorobenzothiazol-2-yl)methyl-indole-N-acetic Acid], in test [1], the IC50 stood at 8 nM.

The molecule `O=C(O)Cn1cc(Cc2nc3c(F)c(F)cc(F)c3s2)c2cc(Cl)ccc21` [Example 2, 5-chloro-3-(4,5,7-Trifluorobenzothiazol-2-yl)methyl-indole-N-acetic Acid] showed an IC50 in test [1] of 10 nM.

In turn, `Cc1ccc2c(c1)c(Cc1nc3c(F)c(F)cc(F)c3s1)cn2CC(=O)O` [Example 4, 5-methyl-3-(4,5,7-trifluorobenzothiazol-2-yl)methyl-indole-N-acetic Acid] returned an IC50 in test [1] of 8 nM.

Turning to `Cc1cccc2c(Cc3nc4c(F)c(F)cc(F)c4s3)cn(CC(=O)O)c12` [Example 5, 7-methyl-3-(4,5,7-trifluorobenzothiazol-2-yl)methyl-indole-N-acetic Acid], in test [1], the IC50 is 6 nM.

In test [1], `O=C(O)Cn1cc(Cc2nc3c(F)c(F)cc(F)c3s2)c2ccc(Cl)cc21` [Example 6, 6-chloro-3-(4,5,7-trifluorobenzothiazol-2-yl)methyl-indole-N-acetic Acid] showed an IC50 of 8 nM.

On to `O=C(O)Cn1cc(Cc2nc3c(F)c(F)cc(F)c3s2)c2cc(OCc3ccccc3)ccc21` [Example 7, 5-benzyloxy-3-(4,5,7-trifluorobenzothiazol-2-yl)methyl-indole-N-acetic Acid], for which, in test [1], the IC50 turned out to be 12 nM.

As to `O=C(O)Cn1cc(Cc2nc3c(F)c(F)cc(F)c3s2)c2ccc(F)cc21` [Example 8, 6-fluoro-3-(4,5,7-trifluorobenzothiazol-2-yl)methyl-indole-N-acetic Acid], in test [1], the IC50 was 7 nM.

For `O=C(O)Cn1cc(Cc2nc3c(F)c(F)cc(F)c3s2)c2cc(F)ccc21` [Example 9, 5-fluoro-3-(4,5,7-trifluorobenzothiazol-2-yl)methyl-indole-N-acetic Acid], in test [1], the 50% inhibitory concentration (IC50) was determined as 11 nM.

In test [1], `Cc1ccc2c(Cc3nc4c(F)c(F)cc(F)c4s3)cn(CC(=O)O)c2c1` [Example 10, 6-methyl-3-(4,5,7-trifluorobenzothiazol-2-yl)methyl-indole-N-acetic Acid] gave an IC50 of 5 nM.

Consider `O=C(O)Cn1cc(Cc2nc3cc(C(F)(F)F)ccc3s2)c2ccccc21` [Example 11, 3-(5-trifluoromethylbenzothiazol-2-yl)methyl-indole-N-acetic Acid], for which the midpoint of inhibition in test [1], the IC50, lay at 99 nM.

Regarding `Cc1ccc2c(c1)c(Cc1nc3cc(C(F)(F)F)ccc3s1)cn2CC(=O)O` [Example 12, 5-Methyl-3-(5-Trifluoromethylbenzothiazol-2-yl)methyl-indole-N-acetic Acid], in test [1], the IC50 stood at 102 nM and the HALR1/hALR2 was 98. Besides, the IC50 in test [2] is 10000 nM.

Consider `O=C(O)Cn1cc(Cc2cccc([N+](=O)[O-])c2)c2ccccc21` [Example 13, 3-(3-nitrophenyl)methyl-indole-N-acetic Acid], for which, in test [1], the IC50 came to 73 nM and the HALR1/hALR2 came out at 178. In addition, the IC50 in test [2] (read-out: HALR1 (IC50)) is 13000 nM.

Consider `O=C(O)Cn1c(-c2ccccc2)c(Cc2nc3c(F)c(F)cc(F)c3s2)c2ccccc21` [Example 14, 2-phenyl-3-(4,5,7-trifluorobenzothiazol-2-yl)methyl-indole-N-acetic Acid], for which, in test [1], the IC50 is 101 nM.

On to `O=C(O)Cn1cc(Cc2nc3c(F)c(F)cc(F)c3s2)c2cc(-c3ccccc3)ccc21` [Example 15, 5-phenyl-3-(4,5,7-trifluorobenzothiazol-2-yl)methyl-indole-N-acetic acid], for which inhibition in test [1] was half-maximal at 53 nM (IC50).

For the molecule `O=C(O)Cn1cc(Cc2nc3c(F)c(F)cc(F)c3s2)c2ccc(-c3ccccc3)cc21` [Example 16, 6-phenyl-3-(4,5,7-trifluorobenzothiazol-2-yl)methyl-indole-N-acetic Acid], in test [1], 25 nM corresponded to half-maximal inhibition (IC50) and the HALR1/hALR2 is recorded as 248. This molecule also yielded an IC50 in test [2] of 6200 nM.

In the case of `O=C(O)Cn1cc(Cc2nc3c(F)c(F)cc(F)c3s2)c2cc(N3CCOCC3)ccc21` [Example 17, 5-morpholino-3-(4,5.7-trifluorobenzothiazol-2-yl)methyl-indole-N-acetic Acid], it took 8 nM to reach half-maximal inhibition in test [1] (IC50).

Turning to `O=C(O)Cn1cc(Cc2nc3c(F)c(F)cc(F)c3s2)c2ccc(N3CCOCC3)cc21` [Example 18, 6-morpholino-3-(4,5,7-trifluorobenzothiazol-2-yl) methyl-indole-N-acetic Acid], the HALR1/hALR2 in test [1] was >6,700. The IC50 is 15 nM in test [1] (read-out: hALR2 (IC50)) and > 100000 nM in test [2] (read-out: HALR1 (IC50)).

Consider `O=C(O)Cn1cc(Cc2nc3c(F)c(F)cc(F)c3s2)c2cc(Oc3ccccc3)ccc21` [Example 19, 5-phenoxy-3-(4,5,7-trifluorobenzothiazol-2-yl)methyl-indole-N-acetic Acid], for which the IC50 in test [1] amounted to 30 nM.

`O=C(O)Cn1cc(Cc2nc3c(F)c(F)cc(F)c3s2)c2cccc(F)c21` [Example 20, 7-fluoro-3-(4,5,7-trifluorobenzothiazol-2-yl)methyl-indole-N-acetic Acid] gave a half-maximal inhibitory concentration (IC50) in test [1] of 7 nM.

For `O=C(O)Cn1cc(Cc2nc3c(F)c(F)cc(F)c3s2)c2cccc(Br)c21` [Example 21, 7-bromo-3-(4,5,7-trifluorobenzothiazol-2-yl)methyl-indole-N-acetic Acid], the IC50 in test [1] came to 14 nM.

On to `O=C(O)Cn1cc(Cc2nc3c(F)c(F)cc(F)c3s2)c2cccc(Cl)c21` [Example 22, 7-chloro-3-(4,5,7-trifluorobenzothiazol-2-yl)methyl-indole-N-acetic Acid], for which the IC50 in test [1] worked out at 9.1 nM.

As for `O=C(O)Cn1cc(Cc2nc3cc(F)ccc3s2)c2ccccc21` [Example 23, 3-[5-Fluorbenzothiazole-2-yl]methyl-indole-N-acetic Acid], in test [1], the IC50 stood at 9 nM and the HALR1/hALR2 stood at 720. In test [2], this molecule yielded an IC50 of 6500 nM.

As to `CC(C(=O)O)n1cc(Cc2nc3c(F)c(F)cc(F)c3s2)c2ccccc21` (stereo not drawn) [Example 25, 3-(4.5,7-trifluorobenzothiazol-2-yl)methyl-indole-N-2-propionic Acid], inhibition in test [1] was half-maximal at 160 nM (IC50).

Consider `O=C(O)CCn1cc(Cc2nc3c(F)c(F)cc(F)c3s2)c2ccccc21` [Example 26, 3-(4-5.7-trifluorobenzothiazol-2-yl)methyl-indole-N-3-propionic Acid], for which the IC50 in test [1] was found to be 17 nM.

On to `O=C(O)Cn1cc(Cc2nc3cc(C(F)(F)F)ccc3s2)c2ccc(Br)cc21` [Example 27, 6-Bromo-3-(5-trifluoromethylbenzothiazol-2-yl)methyl-indole-N-acetic acid], for which the IC50 in test [1] was 52 nM; in test [2], < 5000 nM. Besides, in test [1], the HALR1/hALR2 was <96.

`COc1ccc2c(Cc3nc4c(F)c(F)cc(F)c4s3)cn(CC(=O)O)c2c1` [Example 28, 6-Methoxy-3-(4,5,7-trifluorobenzothiazol-2-yl)methyl-indole-N-acetic acid] showed an IC50 in test [1] of 5 nM.

For the molecule `O=C(O)Cn1cc(Cc2nc3c(F)c(F)cc(F)c3s2)c2c(Cl)cccc21` [Example 29, 4-Chloro-3-(4,5,7-trifluorobenzothiazol-2yl) methyl-indole-N-acetic Acid], half-maximal inhibition in test [1] (IC50) required 11 nM.

`COc1ccc2c(c1)c(Cc1nc3c(F)c(F)cc(F)c3s1)cn2CC(=O)O` [Example 30, 5-Methoxy-3-(4,5,7-trifluorobenzothiazol-2-yl) methyl-indole-N-acetic Acid] registered an IC50 in test [1] of 7.7 nM.

For the molecule `O=C(O)Cn1cc(Cc2nc3c(F)c(F)cc(F)c3s2)c2cc(Br)ccc21` [Example 31, 5-Bromo-3-(4,5.7-trifluorobenzothiazol-2-yl) methyl-indole-N-acetic acid], in test [1], the IC50 turned out to be 13 nM and the HALR1/hALR2 is recorded as 746. Half-maximal inhibition in test [2] (IC50) required 9700 nM.

`O=C(O)Cn1cc(Cc2nc3ccc(Cl)cc3s2)c2ccccc21` [Example 32, 3-(6-chlorobenzothiazol-2-yl) methyl-indole-N-acetic Acid] showed an IC50 in test [1] of 660 nM.
